Assay results reported in patent publication US20190119348A1, “PARATHYROID HORMONE RECEPTOR 1 ANTAGONIST AND INVERSE AGONIST POLYPEPTIDES AND METHODS OF THEIR USE” (The General Hospital Corporation, priority 2016, published 2019).
Where a chain is given by its changes, count along the chain named. Where a SMILES comes first, the peptide text is derived from it. [ ]: non-standard residue; d: D form. Nle = CCCC[C@H](N)C(=O)O

Tests used:
human PTHR1-T410P = target: T1, human PTHR1-T410P (Homo sapiens, UniProt Q03431, T410P); experiment: Inverse agonism on basal cAMP signaling in GTP-4 cells; type: cell-based; conditions: GTP-4 cells (HEK293/GloSensor)
T1 construct: expressed in transfected cells; host or cells: GTP-4 (HEK-293 stably expressing GloSensor and PTHR1-T410P)
T1 sequence (Q03431 27-593 T410P): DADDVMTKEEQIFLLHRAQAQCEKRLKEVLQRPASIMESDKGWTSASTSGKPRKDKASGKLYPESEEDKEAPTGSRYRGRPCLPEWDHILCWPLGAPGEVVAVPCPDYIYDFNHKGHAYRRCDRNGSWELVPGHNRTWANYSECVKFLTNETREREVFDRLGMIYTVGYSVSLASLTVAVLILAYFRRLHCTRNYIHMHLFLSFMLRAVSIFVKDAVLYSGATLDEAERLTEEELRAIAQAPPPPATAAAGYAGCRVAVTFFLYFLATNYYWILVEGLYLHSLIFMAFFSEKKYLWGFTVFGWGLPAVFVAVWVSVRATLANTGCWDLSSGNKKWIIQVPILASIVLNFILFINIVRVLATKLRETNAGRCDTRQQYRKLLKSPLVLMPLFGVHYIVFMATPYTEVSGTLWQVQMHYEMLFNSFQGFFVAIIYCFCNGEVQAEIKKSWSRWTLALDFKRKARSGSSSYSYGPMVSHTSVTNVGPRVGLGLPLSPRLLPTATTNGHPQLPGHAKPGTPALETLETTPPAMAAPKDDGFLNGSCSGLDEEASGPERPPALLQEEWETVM
Experimental: (§1) cAMP signaling was assessed in the HEK293-derived or SaOS2-derived cell lines stably expressing the luciferase-based GloSensor™ cAMP reporter (Hattersley et al., Paper presented at: Novel Signaling Mechanisms and Bone Cell Biology 2014; Binkowski et al., Methods in molecular biology. 756:263-271). HEK-293 cells were further transfected to stably express the hPTHR1, hPTHR1-H223R, or hPTHR1-T410P. The cells were seeded into 96-well white plates and were assayed 24 to 48 hours post-confluency. Assays were performed at room temperature in CO2-independent culture media (Life Technologies, Corp., Carlsbad, Calif.) containing 0.1% BSA (CIDB). The cells were pre-loaded with luciferin (0.5 mM in CIDB) for 15 minutes, then PTH peptides were added at varying concentrations. cAMP-dependent luminescence was measured at two-minute intervals using a PerkinElmer Envision plate reader. The time at which maximum luminescence (cps) observed with agonist alone, typically at 10-20 minutes after agonist addition, was used to obtain data from wells containing antagonist with or without agonist, to thus generate antagonist ligand dose-response curves. The resulting cps values were then plotted against ligand concentration using GraphPad Prism 7.0 software and a four-parameter logistics curve fitting equation, which yielded parameters of inhibitory potency (pIC50).
These experiments were performed in HEK-293 cells stably transfected to express the GloSensor™ cAMP reporter along with a constitutively active mutant human PTHR1. The HEK-293 cells stably expressing GloSensor™ cAMP reporter along with a constitutively active mutant human PTHR1-H223R are GHR-10 cells. The HEK-293 cells stably expressing GloSensor™ cAMP reporter along with a constitutively active mutant human PTHR1-T410P are GTP-4 cells. […] Effects on basal cAMP signaling over time were assessed during periods of direct ligand addition (FIGS. 15A-15F). The measurements were performed by recording GloSensor™ luminescence as counts per second (cps) using a PerkinElmer Envision plate reader. […]

PTHR1 = target: T2, PTHR1 (Homo sapiens, UniProt Q03431); experiment: Antagonism of PTH(1-34)-induced cAMP response (GloSensor) in GP-2.3 cells; type: cell-based; conditions: inhibition of PTH(1-34)-induced maximum response, read-out: corresponding nanomolar value of pIC50 (Table 4) (converted)
T2 construct: expressed in transfected cells; host or cells: GP-2.3 (HEK-293 stably transfected with hPTHR1 and GloSensor)
T2 sequence (Q03431 27-593): T1 sequence (Q03431 27-593 T410P) with P384T
Experimental: as §1
Pharmacological properties of the ligands were assessed in cells expressing the PTHR1 and the GloSensor™ cAMP reporter. The assays used GP-2.3 cells, derived from HEK293 cells by stable transfection with the hPTHR1 and GloSensor™, as well as SGS-72 cells, which are derived from the human osteosarcoma cell line, Saos-2, in which is endogenously expressed the hPTHR1, by stable transfection with GloSensor™. Binding of representative polypeptides to the PTHR1 was assessed in GP-2.3 cells by radioligand competition methods (FIGS. 1A and 1B, Table 3).
[…] concentration of antagonist that inhibited the maximum response to PTH(1-34)-induced in the absence of antagonist (at ˜40 minutes) is reported in units of -log M (pIC50), and the corresponding nanomolar value is shown below each pIC50 value. Data are means of the number of experiments indicated (n). The PTH(1-34)-induced maximum luminescence was ˜80,000 cps and the basal was ˜1,000 cps. TMR indicates Lys13 modified at epsilon amino function with TMR, P vs. inhibition by dW12,Y34-bPTH(7-34).

SMILES | inverse agonist properties on constitutively active PTHR1-T410P (basal cAMP) (human PTHR1-T410P) | IC50 (PTHR1) [nM]
CC[C@H](C)[C@H](NC(=O)[C@H](CCC(=O)O)NC(=O)[C@H](C)NC(=O)[C@@H](NC(=O)[C@H](Cc1c[nH]cn1)NC(=O)[C@@H](NC(=O)[C@H](CCC(=O)O)NC(=O)[C@H](C)NC(=O)[C@@H](NC(=O)[C@H](CC(C)C)NC(=O)[C@H](CCCCN)NC(=O)[C@H](Cc1c[nH]cn1)NC(=O)[C@H](CC(C)C)NC(=O)[C@H](Cc1c[nH]c2ccccc12)NC(=O)[C@H](C)NC(=O)[C@H](CCCNC(=N)N)NC(=O)[C@H](CCCNC(=N)N)NC(=O)[C@H](CCCNC(=N)N)NC(=O)[C@H](C)NC(=O)[C@H](CC(=O)O)NC(=O)[C@H](CCC(N)=O)NC(=O)[C@@H](NC(=O)[C@H](Cc1c[nH]c2ccccc12)NC(=O)[C@H](CCCCN)NC(=O)[C@@H](Cc1c[nH]c2ccccc12)NC(=O)[C@H](CCCNC(=N)N)NC(=O)[C@H](CCC(N)=O)NC(=O)[C@H](Cc1c[nH]cn1)NC(=O)[C@H](CCSC)NC(=O)[C@@H](N)CC(C)C)[C@@H](C)CC)[C@@H](C)CC)[C@@H](C)CC)[C@@H](C)O)C(N)=O [compound 1990, dW12, W23-LA-PTH(7-36)-1990] (H-LMHQR[dW]KWIQDARRRAWLHKLIAEIHTAEI-NH2; N-terminus assumed) | inverse agonist response | 
CC[C@H](C)[C@H](N)C(=O)N[C@@H](CCC(N)=O)C(=O)N[C@@H](CC(C)C)C(=O)N[C@@H](CCSC)C(=O)N[C@@H](Cc1c[nH]cn1)C(=O)N[C@@H](CCC(N)=O)C(=O)N[C@@H](CCCNC(=N)N)C(=O)N[C@H](Cc1c[nH]c2ccccc12)C(=O)N[C@@H](CCCCN)C(=O)N[C@@H](Cc1c[nH]c2ccccc12)C(=O)N[C@H](C(=O)N[C@@H](CCC(N)=O)C(=O)N[C@@H](CC(=O)O)C(=O)N[C@@H](C)C(=O)N[C@@H](CCCNC(=N)N)C(=O)N[C@@H](CCCNC(=N)N)C(=O)N[C@@H](CCCNC(=N)N)C(=O)N[C@@H](C)C(=O)N[C@@H](Cc1c[nH]c2ccccc12)C(=O)N[C@@H](CC(C)C)C(=O)N[C@@H](Cc1c[nH]cn1)C(=O)N[C@@H](CCCCN)C(=O)N[C@@H](CC(C)C)C(=O)N[C@H](C(=O)N[C@@H](C)C(=O)N[C@@H](CCC(=O)O)C(=O)N[C@H](C(=O)N[C@@H](Cc1c[nH]cn1)C(=O)N[C@H](C(=O)N[C@@H](C)C(=O)N[C@@H](CCC(=O)O)C(=O)N[C@H](C(N)=O)[C@@H](C)CC)[C@@H](C)O)[C@@H](C)CC)[C@@H](C)CC)[C@@H](C)CC [compound 1949, dW12, W23-LA-PTH(5-36)] (H-IQLMHQR[dW]KWIQDARRRAWLHKLIAEIHTAEI-NH2; N-terminus assumed) | exhibited inverse agonist properties | 101
CCCC[C@H](NC(=O)[C@@H](N)CC(C)C)C(=O)N[C@@H](Cc1c[nH]cn1)C(=O)N[C@@H](CCC(N)=O)C(=O)N[C@@H](CCCNC(=N)N)C(=O)N[C@H](Cc1c[nH]c2ccccc12)C(=O)N[C@@H](CCCCN)C(=O)N[C@@H](Cc1c[nH]c2ccccc12)C(=O)N[C@H](C(=O)N[C@@H](CCC(N)=O)C(=O)N[C@@H](CC(=O)O)C(=O)N[C@@H](C)C(=O)N[C@@H](CCCNC(=N)N)C(=O)N[C@@H](CCCNC(=N)N)C(=O)N[C@@H](CCCNC(=N)N)C(=O)N[C@@H](C)C(=O)N[C@@H](Cc1c[nH]c2ccccc12)C(=O)N[C@@H](CC(C)C)C(=O)N[C@@H](Cc1c[nH]cn1)C(=O)N[C@@H](CCCCN)C(=O)N[C@@H](CC(C)C)C(=O)N[C@H](C(=O)N[C@@H](C)C(=O)N[C@@H](CCC(=O)O)C(=O)N[C@H](C(=O)N[C@@H](Cc1c[nH]cn1)C(=O)N[C@H](C(=O)N[C@@H](C)C(=O)N[C@@H](CCC(=O)O)C(=O)N[C@H](C(N)=O)[C@@H](C)CC)[C@@H](C)O)[C@@H](C)CC)[C@@H](C)CC)[C@@H](C)CC [compound 1992, Nle8, dW12, W23-LA-PTH(7-36)-1992] (H-L[Nle]HQR[dW]KWIQDARRRAWLHKLIAEIHTAEI-NH2; N-terminus assumed) | inverse agonist response | 
